Where a SMILES comes first, the peptide text is derived from it. [ ]: non-standard residue; d: D form.

The experiment relates to rat's hind paw heat-edema. In words: heat-induced paw edema in pentobarbital-anesthetized rat (58° C. water, 1 minute). It counts as in vivo. Particulars: dose 2 mg/kg i.v., ten minutes before 58° C. water for 1 minute; edema measured 30 minutes after heat. On the procedure: The inventive peptides were dissolved either in saline or saline acidified with 0.1 M acetic acid and injected intravenously into a pentobarbital-anesthetized rat. The rat's hind paw was then immersed in 58°-60° C. water for 1 minute and the increase in paw weight, as an index of edema and swelling, was measured 30 minutes later. For some peptides, the ability of the substances to inhibit vascular leakage after muscle injury was also tested. Normally, the paw weight of saline-treated animals (controls) will increase by about 65-95% after heat injury. The increase in weight is relative to the contralateral non-heated paw.
In screening the bioactivity of new peptides, a dose of 5 mg/kg i.v. was initially used. In later studies, when greater activity was expected, a screening dose of 1 to 2 mg/kg i.v. was used.
Thus, each peptide was injected intravenously (at the amounts specified, usually 1 or 5 mg/kg, or by full dose-response analysis) 10 minutes (for 7/8-mers) or one hour (for 11-mers) before immersion of the right paw in 58° C. water, for 1 minute, and weights of both paws were obtained 30minutes later. To obtain statistical accuracy, four to six animals were used in each group. The % wt increase was calculated as (wt of heated paw--wt of unheated paw/wt of unheated paw)×100 and converted to % of the saline control group values, which were run concurrently.

`CC[C@H](C)[C@H](NC(=O)[C@H](Cc1ccc(OC)cc1)NC(=O)[C@H](CCSC)NC(=O)[C@H](CC(C)C)NC(=O)[C@H](CCCCN)NC(=O)[C@H](CCCNC(=N)N)NC(C)=O)C(=O)N[C@H](CC(C)C)C(N)=O` [Composition 18] (Ac-RKLMY(Me)I[dL]-NH2): the “Heat-Edema % Saline Values” is recorded as 27 ± 1 % Saline Values.

For the origin of these results see patent US5480869A, “Anti-inflammatory peptide analogs and treatment to inhibit vascular leakage in injured tissues” (The Regents of the University of California, priority 1993, dated 1996).
